Reference: the supplement of paper PMC10307832

Columns and labels:
Experiment in all cases: relative viability (nuclei count vs DMSO), 5 days (fraction); higher = more cells survive
AZD8055 = compound: COc1ccc(-c2ccc3c(N4CCOC[C@@H]4C)nc(N4CCOC[C@@H]4C)nc3n2)cc1CO [AZD8055]
How it was run: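 Only plates meeting two conditions passed: control CV below 25% and at least one doubling. Lung cancer cell lines, kept overnight at 37 °C in 1536-well plates, were pinned with five library-drug doses (not always all listed) √10 apart on vehicle-anchored plates and grown 5 days without medium change. A one-step fix, permeabilisation and Hoechst stain preceded 4× imaging and MetaXpress nuclear counting. Viability equals treated-well nuclei divided by vehicle-well nuclei, as the median over plates.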

AZD8055 + Tozasertib = compound: COc1ccc(-c2ccc3c(N4CCOC[C@@H]4C)nc(N4CCOC[C@@H]4C)nc3n2)cc1CO [AZD8055] + Cc1cc(Nc2cc(N3CCN(C)CC3)nc(Sc3ccc(NC(=O)C4CC4)cc3)n2)n[nH]1 [Tozasertib] (partner 0.1 µM)
How it was run: (§1)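 Lung cancer cell lines in 1536-well plates got either a single drug or a fixed anchor-drug dose together with five library-drug doses (not always all listed) in √10 steps, by pin tool, on the day after seeding. Nuclei were counted after 5 days, and relative viability is the treated-to-vehicle ratio of nuclei counts. Values are medians of duplicate plates.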

AZD8055 + Navitoclax = compound: COc1ccc(-c2ccc3c(N4CCOC[C@@H]4C)nc(N4CCOC[C@@H]4C)nc3n2)cc1CO [AZD8055] + CC1(C)CCC(c2ccc(Cl)cc2)=C(CN2CCN(c3ccc(C(=O)NS(=O)(=O)c4ccc(N[C@H](CCN5CCOCC5)CSc5ccccc5)c(S(=O)(=O)C(F)(F)F)c4)cc3)CC2)C1 [Navitoclax] (partner 0.5 µM)
How it was run: as §1

AZD8055 + Phenformin = compound: COc1ccc(-c2ccc3c(N4CCOC[C@@H]4C)nc(N4CCOC[C@@H]4C)nc3n2)cc1CO [AZD8055] + N=C(N)NC(=N)NCCc1ccccc1 [Phenformin] (partner 250 µM)
How it was run: as §1

Cell Line	relative viability (AZD8055; 0.01 µM)	relative viability (AZD8055; 0.03162 µM)	relative viability (AZD8055; 0.1 µM)	relative viability (AZD8055; 0.3162 µM)	relative viability (AZD8055; 1 µM)	relative viability (AZD8055 + Tozasertib; first compound 0.01 µM)	relative viability (AZD8055 + Tozasertib; first compound 0.03162 µM)	relative viability (AZD8055 + Tozasertib; first compound 0.1 µM)	relative viability (AZD8055 + Tozasertib; first compound 0.3162 µM)	relative viability (AZD8055 + Tozasertib; first compound 1 µM)	relative viability (AZD8055 + Navitoclax; first compound 0.01 µM)	relative viability (AZD8055 + Navitoclax; first compound 0.03162 µM)	relative viability (AZD8055 + Navitoclax; first compound 0.1 µM)	relative viability (AZD8055 + Navitoclax; first compound 0.3162 µM)	relative viability (AZD8055 + Navitoclax; first compound 1 µM)	relative viability (AZD8055 + Phenformin; first compound 0.01 µM)	relative viability (AZD8055 + Phenformin; first compound 0.03162 µM)	relative viability (AZD8055 + Phenformin; first compound 0.1 µM)	relative viability (AZD8055 + Phenformin; first compound 0.3162 µM)	relative viability (AZD8055 + Phenformin; first compound 1 µM)
201T	0.955	0.987	0.907	0.635	0.487	0.98	0.895	0.813	0.529	0.595	1.22	1.23	1.21	1.03	0.819	0.473	0.438	0.422	0.318	0.314
A549	1	0.83	0.639	0.19	0.106	–	–	–	–	–	1.21	0.74	0.454	0.189	0.143	0.175	0.155	0.1	0.0798	0.0524
A-427	1.05	0.871	0.893	0.574	0.586	0.204	0.193	0.22	0.163	0.208	0.987	0.837	0.598	0.376	0.315	0.459	0.381	0.321	0.25	0.291
ABC-1	0.948	1.08	0.757	0.332	0.413	0.186	0.187	0.174	0.196	0.19	–	–	–	–	–	0.198	0.289	0.226	0.197	0.22
BEN	0.901	0.6	0.53	0.358	0.325	0.563	0.48	0.492	0.471	0.345	0.0642	0.064	0.0538	0.0837	0.0613	0.293	0.26	0.292	0.242	0.228
CAL-12T	1.06	0.995	0.7	0.322	0.274	0.329	0.37	0.277	0.174	0.166	1.25	1.24	0.838	0.35	0.23	0.567	0.626	0.479	0.23	0.2
Calu-6	1.13	0.991	0.835	0.621	0.449	–	–	–	–	–	0.886	0.792	0.621	0.32	0.313	–	–	–	–	–
EBC-1	1.11	0.828	0.609	0.244	0.205	–	–	–	–	–	0.312	0.187	0.213	0.182	0.205	–	–	–	–	–
IA-LM	0.98	0.651	0.241	0.103	0.116	–	–	–	–	–	0.566	0.495	0.291	0.109	0.105	–	–	–	–	–
LCLC-103H	0.945	0.86	0.86	0.609	0.519	0.493	0.494	0.399	0.367	0.25	–	–	–	–	–	0.307	0.291	0.268	0.206	0.224
NCI-H358	1.03	1.15	0.855	0.323	0.263	0.0893	0.121	0.102	0.0607	0.0813	–	–	–	–	–	0.362	0.387	0.294	0.151	0.121
NCI-H522	0.965	1	0.723	0.519	0.719	0.571	0.544	0.421	0.421	0.425	–	–	–	–	–	0.69	0.624	0.669	0.48	0.56
NCI-H650	0.984	0.809	0.738	0.427	0.303	0.817	0.711	0.601	0.381	0.333	–	–	–	–	–	0.473	0.378	0.429	0.305	0.302
NCI-H661	1.03	0.992	0.842	0.521	0.537	0.329	0.376	0.376	0.356	0.359	–	–	–	–	–	0.245	0.262	0.287	0.248	0.261
NCI-H1299	1.04	1.06	1.04	0.807	0.415	–	–	–	–	–	1.05	1.08	1.02	0.939	0.67	–	–	–	–	–
NCI-H1563	0.844	0.791	0.719	0.604	0.684	–	–	–	–	–	–	–	–	–	–	0.632	0.66	0.617	0.656	0.641
NCI-H1648	0.642	0.745	0.542	0.271	0.326	0.461	0.702	0.34	0.232	0.226	–	–	–	–	–	–	–	–	–	–
NCI-H1703	0.822	0.715	0.634	0.265	0.332	–	–	–	–	–	0.944	0.702	0.517	0.292	0.337	–	–	–	–	–
NCI-H1792	0.951	0.612	0.325	0.171	0.216	–	–	–	–	–	0.89	0.518	0.51	0.13	0.086	0.193	0.193	0.0875	0.0907	0.109
NCI-H2342	1.19	0.881	0.735	0.476	0.572	0.477	0.423	0.395	0.345	0.371	–	–	–	–	–	0.609	0.495	0.429	0.394	0.437
